Source: US20100111888A1, “Organic Compounds and Compositions Having the Ability to Modulate Fragrance Compositions” (GIVAUDAN SA, priority 2007, published 2010)
Blank lines part the entries; values can stand above or below the compound they belong to.

Key:
Assay type in all cases: biochemical
CYP2A13 = target: T1, CYP2A13 (Homo sapiens, UniProt Q16696); assay: Evaluation of test compounds as inhibitors of CYP2A13 (coumarin to Umbelliferone, fluorescence); details: substrate coumarin 0.006 mM; microsomes with 7 pmoles CYP2A13; 60 min at 37° C.; read-out: CYP2A13 inhibitor activity IC50
T1 construct: made in house; host or cells: Sf9 insect cells, recombinant baculovirus
T1 sequence (Q16696 1-494): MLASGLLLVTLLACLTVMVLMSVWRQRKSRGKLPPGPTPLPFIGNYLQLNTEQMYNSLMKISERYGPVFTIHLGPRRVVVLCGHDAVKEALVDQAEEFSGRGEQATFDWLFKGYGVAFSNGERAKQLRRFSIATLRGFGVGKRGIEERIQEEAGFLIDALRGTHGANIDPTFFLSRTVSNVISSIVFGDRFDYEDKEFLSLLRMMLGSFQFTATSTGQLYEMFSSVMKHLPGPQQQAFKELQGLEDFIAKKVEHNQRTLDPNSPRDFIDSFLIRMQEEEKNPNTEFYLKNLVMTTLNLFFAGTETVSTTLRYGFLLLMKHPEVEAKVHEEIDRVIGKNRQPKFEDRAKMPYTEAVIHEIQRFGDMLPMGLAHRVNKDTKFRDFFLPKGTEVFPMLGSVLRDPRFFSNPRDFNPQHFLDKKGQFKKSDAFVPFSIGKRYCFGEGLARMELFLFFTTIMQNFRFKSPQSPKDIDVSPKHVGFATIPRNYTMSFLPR
Description: P450 reductase is commercially available (BD Biosciences Gentest, USA).
Microsomes were used which contained 7 pmoles CYP2A13.

CYP2A6 = target: T2, CYP2A6 (Homo sapiens, UniProt P11509); assay: Evaluation of test compounds as inhibitors of CYP2A6 (coumarin to Umbelliferone, fluorescence); details: substrate coumarin 0.003 mM; microsomes with 2 pmoles CYP2A6; 60 min at 37° C.; read-out: CYP2A6 inhibitor activity IC50
T2 construct: purchased BD Biosciences Gentest, USA
T2 sequence (P11509 1-494): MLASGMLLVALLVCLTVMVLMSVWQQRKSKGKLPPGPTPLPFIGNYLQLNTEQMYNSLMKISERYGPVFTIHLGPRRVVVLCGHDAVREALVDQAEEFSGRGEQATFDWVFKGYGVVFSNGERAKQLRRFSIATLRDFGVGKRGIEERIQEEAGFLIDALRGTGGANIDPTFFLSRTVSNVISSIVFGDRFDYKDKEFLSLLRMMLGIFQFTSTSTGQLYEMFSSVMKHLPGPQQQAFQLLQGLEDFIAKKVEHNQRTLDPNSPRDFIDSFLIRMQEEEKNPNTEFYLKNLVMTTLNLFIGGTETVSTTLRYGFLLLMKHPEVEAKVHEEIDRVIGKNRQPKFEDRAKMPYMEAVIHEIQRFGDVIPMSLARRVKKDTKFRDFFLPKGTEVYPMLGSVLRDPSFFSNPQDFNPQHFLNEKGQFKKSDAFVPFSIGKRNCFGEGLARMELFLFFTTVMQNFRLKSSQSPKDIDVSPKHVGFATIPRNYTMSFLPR
Method: Test compounds that inhibit the activity of CYP2A6 are identified by using the same principle as described in Example 1, first paragraph.
A test compound (details see Table 2) was incubated with CYP2A6 in the presence of a cytochrome P450 reductase. CYP2A6 and P450 reductase were employed in form of microsomes (BD Biosciences Gentest, USA). Microsomes were used which contained 2 pmoles CYP2A6 and an amount of NADPH-P450 reductase corresponding to cytochrome c reductase activity of 87 nmole/(min×mg protein). […] The concentration of the standard substrate coumarin was 0.003 mM.
The samples were analysed spectrofluorometrically according to the procedure described in Example 1.

CYP2B6 = target: T3, CYP2B6 (Homo sapiens, UniProt P20813); assay: Inhibition of human CYP2B6 (7-ethoxy-4-trifluoromethyl-coumarin, fluorescence); details: substrate 7-ethoxy-4-trifluoromethyl-coumarin 6 μM; microsomes with 1.5 pmoles CYP2B6; 40 min at 37° C.; read-out: CYP2B6 inhibitor activity IC50
T3 construct: made in house; host or cells: Sf9 insect cells, recombinant baculoviruses
T3 sequence (P20813 1-491): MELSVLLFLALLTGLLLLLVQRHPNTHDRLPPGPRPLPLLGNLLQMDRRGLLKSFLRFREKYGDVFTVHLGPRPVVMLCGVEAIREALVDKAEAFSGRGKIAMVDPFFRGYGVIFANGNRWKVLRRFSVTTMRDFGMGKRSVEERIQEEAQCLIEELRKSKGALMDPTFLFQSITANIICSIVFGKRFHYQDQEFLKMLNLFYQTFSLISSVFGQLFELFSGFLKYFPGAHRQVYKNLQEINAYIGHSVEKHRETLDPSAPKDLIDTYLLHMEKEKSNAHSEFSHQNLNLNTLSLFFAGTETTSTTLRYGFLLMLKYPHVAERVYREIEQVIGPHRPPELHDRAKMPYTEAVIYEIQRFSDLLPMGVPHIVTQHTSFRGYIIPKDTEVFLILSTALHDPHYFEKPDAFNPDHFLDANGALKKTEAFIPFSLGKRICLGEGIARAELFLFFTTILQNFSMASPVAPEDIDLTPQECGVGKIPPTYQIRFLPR
Method: Test compounds that inhibit the activity of CYP2B6 are identified by using the same principle as described in Example 1, first paragraph.
A test compound (details see Table 4) was incubated with CYP2B6 in the presence of a cytochrome P450 reductase. CYP2B6 and P450 reductase are produced using recombinant baculoviruses and co-expressing the two proteins in Sf9 insect cells as described in Example 1. Alternatively, microsomes containing CYP2B6 and the reductase are commercially available (BD Biosciences Gentest, USA). Microsomes were used which contained 1.5 pmoles CYP2B6. Potassium phosphate buffer final concentration was 100 mM, (1M stock, pH 7.4). […] The concentration of the standard substrate 7-ethoxy-4-trifluoromethyl-coumarin was 6 μM. […] The samples were incubated for 40 min at 37° C.

Structure (SMILES): CCCCCC/C(=C\C1CC1)C(C)=O [Compound ID 2, (E)-3-(cyclopropylmethylene)nonan-2-one]
IC50 (CYP2A13): 1.1 µM | IC50 (CYP2A6): 8 µM | IC50 (CYP2B6): 3.5 µM

Structure (SMILES): CCCCC/C(=C\C1CC1)C(C)=O [Compound ID 3, (E)-3-(cyclopropylmethylene)octan-2-one]
IC50 (CYP2A13): 0.3 µM | IC50 (CYP2A6): 7 µM | IC50 (CYP2B6): 4 µM

Structure (SMILES): CCCC/C(=C\C1CC1)C(C)=O [Compound ID 1, (E)-3-(cyclopropylmethylene)heptan-2-one]
IC50 (CYP2A13): 0.5 µM | IC50 (CYP2A6): 3 µM | IC50 (CYP2B6): 3.9 µM

Continued by falling IC50 (CYP2A13), values first:

IC50 (CYP2A13): 4.8 µM | IC50 (CYP2A6): 148 µM
Structure (SMILES): CCCCCC(Cc1ccccc1)C(C)=O (stereo not shown) [Compound ID 4, 3-phenylmethyloctan-2-one]

IC50 (CYP2A13): 0.6 µM | IC50 (CYP2A6): 141 µM
Structure (SMILES): CCCCC/C(=C\c1ccccc1)C(C)=O [Compound ID 5, (E)-3-benzylideneoctan-2-one]
